Measurements as given in ChEMBL document CHEMBL6083208, “Integrating amino acids into Bcr-Abl inhibitors: design, synthesis, biological evaluation, and in silico studies” (RSC Med Chem, 2024).

What was measured:
K562 = assay: cells; details: Homo sapiens, K562, 48 h
THP-1 = assay: Antiproliferative activity against human THP-1 cells after 48 hrs by MTT assay; type: functional; design: concentration or dose not given beside the values
BaF3 [1] = assay: Antiproliferative activity against mouse BaF3 cells harbouring Bcr-Abl T315I assessed of cell viability at 30 uM incubated for 72 hrs by Celltiter-glo luminescent cell viability assay relative to control; type: functional
Bcr/Abl fusion protein = Bcr/Abl fusion protein (Homo sapiens, UniProt P00519); assay: Inhibition of wild type Bcr-Abl (unknown origin) using Abltide as substrate incubated for 1 hr by luminescence based ADP-glo assay; type: protein assay
Chain of Bcr/Abl fusion protein (P00519 whole entry, the tested form may be a part): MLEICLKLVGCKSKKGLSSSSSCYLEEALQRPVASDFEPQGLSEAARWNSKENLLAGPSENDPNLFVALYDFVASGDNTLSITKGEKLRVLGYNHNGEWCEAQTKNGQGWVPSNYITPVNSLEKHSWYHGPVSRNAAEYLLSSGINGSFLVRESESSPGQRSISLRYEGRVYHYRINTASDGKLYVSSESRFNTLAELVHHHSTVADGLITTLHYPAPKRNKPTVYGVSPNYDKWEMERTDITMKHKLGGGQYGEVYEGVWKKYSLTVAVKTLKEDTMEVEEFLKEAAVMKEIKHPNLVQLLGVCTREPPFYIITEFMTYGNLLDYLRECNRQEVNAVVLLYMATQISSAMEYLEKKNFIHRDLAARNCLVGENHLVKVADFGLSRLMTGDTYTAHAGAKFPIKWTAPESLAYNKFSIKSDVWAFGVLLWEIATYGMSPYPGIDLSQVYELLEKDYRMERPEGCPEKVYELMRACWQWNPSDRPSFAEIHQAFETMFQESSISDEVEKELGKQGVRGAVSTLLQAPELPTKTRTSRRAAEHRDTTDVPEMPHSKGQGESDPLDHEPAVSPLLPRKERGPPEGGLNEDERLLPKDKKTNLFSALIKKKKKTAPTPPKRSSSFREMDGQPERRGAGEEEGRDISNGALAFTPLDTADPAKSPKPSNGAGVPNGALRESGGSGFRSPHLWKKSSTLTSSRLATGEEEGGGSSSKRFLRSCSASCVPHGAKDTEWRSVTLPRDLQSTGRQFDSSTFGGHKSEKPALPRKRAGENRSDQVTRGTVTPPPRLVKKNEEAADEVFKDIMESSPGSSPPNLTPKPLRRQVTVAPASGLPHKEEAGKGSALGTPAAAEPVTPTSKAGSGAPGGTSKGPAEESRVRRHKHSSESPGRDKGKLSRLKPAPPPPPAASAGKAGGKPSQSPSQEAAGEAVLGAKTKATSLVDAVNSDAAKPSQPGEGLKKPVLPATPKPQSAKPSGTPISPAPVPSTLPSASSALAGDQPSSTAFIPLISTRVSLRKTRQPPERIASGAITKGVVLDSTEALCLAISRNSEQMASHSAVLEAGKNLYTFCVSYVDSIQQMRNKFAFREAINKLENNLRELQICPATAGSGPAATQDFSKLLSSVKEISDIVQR
Chain of Bcr/Abl fusion protein (P11274 whole entry, further chain, the tested form may be a part): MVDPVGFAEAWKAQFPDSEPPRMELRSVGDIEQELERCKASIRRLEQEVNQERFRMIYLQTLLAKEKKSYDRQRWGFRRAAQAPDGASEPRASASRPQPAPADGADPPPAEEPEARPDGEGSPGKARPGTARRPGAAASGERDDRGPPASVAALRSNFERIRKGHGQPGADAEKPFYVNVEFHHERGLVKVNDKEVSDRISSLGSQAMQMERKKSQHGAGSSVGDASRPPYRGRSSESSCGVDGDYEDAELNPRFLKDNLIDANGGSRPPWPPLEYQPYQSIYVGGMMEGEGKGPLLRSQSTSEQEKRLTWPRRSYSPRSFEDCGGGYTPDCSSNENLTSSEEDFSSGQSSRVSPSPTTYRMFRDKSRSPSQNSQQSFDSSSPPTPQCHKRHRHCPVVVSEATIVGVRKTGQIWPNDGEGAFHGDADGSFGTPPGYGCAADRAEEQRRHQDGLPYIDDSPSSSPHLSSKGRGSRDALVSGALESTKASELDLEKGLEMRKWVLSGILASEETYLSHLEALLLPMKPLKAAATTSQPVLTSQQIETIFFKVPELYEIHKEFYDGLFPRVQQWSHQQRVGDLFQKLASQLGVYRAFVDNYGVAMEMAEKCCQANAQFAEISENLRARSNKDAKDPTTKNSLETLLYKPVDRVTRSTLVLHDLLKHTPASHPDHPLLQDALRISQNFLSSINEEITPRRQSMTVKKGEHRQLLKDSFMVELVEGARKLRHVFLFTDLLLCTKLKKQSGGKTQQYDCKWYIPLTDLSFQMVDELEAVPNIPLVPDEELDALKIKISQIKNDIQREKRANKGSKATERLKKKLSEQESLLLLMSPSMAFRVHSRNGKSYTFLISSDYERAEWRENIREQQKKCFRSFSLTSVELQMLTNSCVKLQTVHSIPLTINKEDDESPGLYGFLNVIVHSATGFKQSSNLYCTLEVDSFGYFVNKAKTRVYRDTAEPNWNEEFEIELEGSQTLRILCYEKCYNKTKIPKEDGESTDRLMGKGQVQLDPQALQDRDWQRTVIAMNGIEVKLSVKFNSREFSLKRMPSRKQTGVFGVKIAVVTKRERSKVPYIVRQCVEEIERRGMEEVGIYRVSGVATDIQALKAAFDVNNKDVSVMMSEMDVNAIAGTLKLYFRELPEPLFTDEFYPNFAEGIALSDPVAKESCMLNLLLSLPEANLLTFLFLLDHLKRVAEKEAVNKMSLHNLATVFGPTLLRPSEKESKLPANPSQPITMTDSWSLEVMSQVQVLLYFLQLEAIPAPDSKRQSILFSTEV

HEK293 = assay: Antiproliferative activity against HEK293 cells after 48 hrs by MTT assay; type: toxicity, cell-based; design: concentration or dose not given beside the values; details: human, hek293, 48 h
[2] = Inhibition of Bcr-Abl T315Ialpha mutant (unknown origin) using Abltide as substrate incubated for 1 hr by luminescence based ADP-glo assay; design: species or system Homo sapiens
BaF3 [3] = assay: Antiproliferative activity against mouse BaF3 cells harbouring Bcr-Abl T315I assessed of cell viability at 2 uM incubated for 72 hrs by Celltiter-glo luminescent cell viability assay relative to control; type: functional
BaF3 [4] = assay: Antiproliferative activity against mouse BaF3 cells harbouring Bcr-Abl T315I assessed of cell viability at 10 uM incubated for 72 hrs by Celltiter-glo luminescent cell viability assay relative to control; type: functional

SMILES	IC50 (K562) [nM]	Activity (THP-1) [%]	inhibition at 30 µM (BaF3 [1]) [%]	IC50 (Bcr/Abl fusion protein) [nM]	Activity (HEK293) [%]	IC50 [2] [nM]	inhibition at 2 µM (BaF3 [3]) [%]	inhibition at 10 µM (BaF3 [4]) [%]
CC(C)(C)C(=O)Nc1cc(-c2ccc(C(=O)N[C@H](C(=O)Nc3ccc(Cl)c(C(F)(F)F)c3)C(C)(C)C)cc2)ccn1	5.36	94	8.24	16.8	87	481	–	–
CCN(CC)C(=O)c1cncc(-c2ccc(C(=O)N[C@H](C(=O)Nc3ccc(Cl)c(C(F)(F)F)c3)C(C)(C)C)cc2)c1	10.2	56	42.8	4.5	97	185	–	–
Nc1ccc(-c2cccc(C(=O)N[C@@H](CO)C(=O)Nc3ccc(Cl)c(C(F)(F)F)c3)c2)cn1	2.13	84	88.3	1.6	93	148	-0.03	15.2
CS(=O)(=O)Nc1ccc(-c2cccc(C(=O)N[C@@H](CO)C(=O)Nc3ccc(Cl)c(C(F)(F)F)c3)c2)cn1	1.33	83	62.8	0.93	94	217	–	–
O=C(NC1CC1)c1cncc(-c2cccc(C(=O)N[C@@H](CO)C(=O)Nc3ccc(Cl)c(C(F)(F)F)c3)c2)c1	2.79	72	66.1	1.35	99	348	–	–
CC(=O)Nc1cc(-c2ccc(C(=O)N[C@@H](CO)C(=O)Nc3ccc(Cl)c(C(F)(F)F)c3)cc2)ccn1	2.64	72	58.8	0.8	91	136	–	–
CS(=O)(=O)Nc1cc(-c2ccc(C(=O)N[C@@H](CO)C(=O)Nc3ccc(Cl)c(C(F)(F)F)c3)cc2)ccn1	0.13	87	5.71	0.33	78	87	–	–
CC(C)(C)OC[C@H](NC(=O)c1cccc(-c2ccc(NC(=O)C3CC3)nc2)c1)C(=O)Nc1ccc(Cl)c(C(F)(F)F)c1	–	74	-4.27	3.75	92	204	–	–
CC(C)(C)OC[C@H](NC(=O)c1ccc(-c2ccnc(C(=O)NC3CC3)c2)cc1)C(=O)Nc1ccc(Cl)c(C(F)(F)F)c1	10.7	62	–	11.4	84	183	0	22.5
CCN(CC)C(=O)c1cncc(-c2ccc(C(=O)N[C@@H](COC(C)(C)C)C(=O)Nc3ccc(Cl)c(C(F)(F)F)c3)cc2)c1	6.26	100	35	5.46	73	144	–	–
CC(C)(C)OC[C@H](NC(=O)c1cccc(-c2cncc(C(=O)NC3CC3)c2)c1)C(=O)Nc1ccc(Cl)c(C(F)(F)F)c1	8.86	69	–	9.3	95	608	1.93	94.1
CC(=O)Nc1ccc(-c2cccc(C(=O)N[C@@H](COC(C)(C)C)C(=O)Nc3ccc(Cl)c(C(F)(F)F)c3)c2)cn1	19.4	64	77.1	56	98	723	–	–
CC(C)(C)OC[C@H](NC(=O)c1ccc(-c2ccnc(NC(=O)C(C)(C)C)c2)cc1)C(=O)Nc1ccc(Cl)c(C(F)(F)F)c1	3.12	63	-3.86	4.44	90	303	–	–
CC(C)(C)[C@H](NC(=O)c1cccc(-c2cncc(C(=O)NC3CC3)c2)c1)C(=O)Nc1ccc(Cl)c(C(F)(F)F)c1	8.47	100	–	34	90	207	7.2	65.6
O=C(NC1CC1)c1cncc(-c2ccc(C(=O)N[C@@H](CO)C(=O)Nc3ccc(Cl)c(C(F)(F)F)c3)cc2)c1	1.68	58	82.5	1.11	89	60	–	–
CC(C)(C)OC[C@H](NC(=O)c1cccc(-c2ccc(NC(=O)C(C)(C)C)nc2)c1)C(=O)Nc1ccc(Cl)c(C(F)(F)F)c1	1.26	73	-5.67	8.61	72	436	–	–
CC(=O)Nc1ccc(-c2cccc(C(=O)N[C@H](C(=O)Nc3ccc(Cl)c(C(F)(F)F)c3)C(C)(C)C)c2)cn1	10.1	100	–	7.26	86	165	7.81	100
CCN(CC)C(=O)c1cncc(-c2cccc(C(=O)N[C@H](C(=O)Nc3ccc(Cl)c(C(F)(F)F)c3)C(C)(C)C)c2)c1	2.66	55	50.8	6.69	100	148	–	–
CC(C)(C)OC[C@H](NC(=O)c1cccc(-c2ccc(N)nc2)c1)C(=O)Nc1ccc(Cl)c(C(F)(F)F)c1	1.27	100	-5	0.27	96	105	–	–
Cc1ccc(C(=O)Nc2ccc(CN3CCN(C)CC3)c(C(F)(F)F)c2)cc1C#Cc1cnc2cccnn12 [PONATINIB]	0.049	3	–	–	55	–	–	–
CCN(CC)C(=O)c1cncc(-c2cccc(C(=O)N[C@@H](COC(C)(C)C)C(=O)Nc3ccc(Cl)c(C(F)(F)F)c3)c2)c1	8.11	84	58.4	33	100	132	–	–
CCN(CC)C(=O)c1cncc(-c2ccc(C(=O)N[C@@H](CO)C(=O)Nc3ccc(Cl)c(C(F)(F)F)c3)cc2)c1	12.2	100	-1.59	0.27	74	261	–	–
CC(C)(C)OC[C@H](NC(=O)c1ccc(-c2cncc(C(=O)NC3CC3)c2)cc1)C(=O)Nc1ccc(Cl)c(C(F)(F)F)c1	2.5	79	69.7	15.5	84	128	–	–
CCN(CC)C(=O)c1cncc(-c2cccc(C(=O)N[C@@H](CO)C(=O)Nc3ccc(Cl)c(C(F)(F)F)c3)c2)c1	4.92	75	53.2	3.57	84	295	–	–
Nc1cc(-c2ccc(C(=O)N[C@@H](CO)C(=O)Nc3ccc(Cl)c(C(F)(F)F)c3)cc2)ccn1	0.36	100	-3.39	0.24	83	99	–	–
CC(C)(C)C(=O)Nc1ccc(-c2cccc(C(=O)N[C@@H](CO)C(=O)Nc3ccc(Cl)c(C(F)(F)F)c3)c2)cn1	4.86	77	–	7.29	100	504	0.99	96.8
